Where “and” joins values, the source holds several entries; their conditions need not be identical. Equal entries are not always repeated.
Assay: xn = mol fraction of the nth substance listed
Conditions: 100 kPa, Liquid, Vibrating tube method

CCC(O)CC [3-pentanol] + C[N+](=O)[O-]
Conditions | mass density
291.86 K, x1 = 0.325 | 974.982 kg/m3
291.86 K, x1 = 0.363 | 961.613 kg/m3
291.86 K, x1 = 0.407 | 946.991 kg/m3
291.86 K, x1 = 0.488 | 922.68 kg/m3
291.86 K, x1 = 0.546 | 907.193 kg/m3
291.86 K, x1 = 0.587 | 896.735 kg/m3
291.95 K, x1 = 0.246 | 1005.58 kg/m3
291.95 K, x1 = 0.275 | 993.548 kg/m3
291.95 K, x1 = 0.3 | 984.145 kg/m3
291.95 K, x1 = 0.325 | 974.857 kg/m3
291.95 K, x1 = 0.338 | 970.048 kg/m3
291.95 K, x1 = 0.363 | 961.485 kg/m3
291.95 K, x1 = 0.382 | 954.991 kg/m3
291.95 K, x1 = 0.407 | 946.861 kg/m3
291.95 K, x1 = 0.414 | 944.587 kg/m3
291.95 K, x1 = 0.486 | 923.287 kg/m3
291.95 K, x1 = 0.488 | 922.559 kg/m3
291.95 K, x1 = 0.573 | 900.26 kg/m3
291.95 K, x1 = 0.587 | 896.628 kg/m3
291.95 K, x1 = 0.615 | 889.805 kg/m3
291.96 K, x1 = 0.266 | 997.055 kg/m3
291.96 K, x1 = 0.546 | 907.079 kg/m3
292.05 K, x1 = 0.246 | 1005.45 kg/m3
292.05 K, x1 = 0.275 | 993.426 kg/m3
292.05 K, x1 = 0.382 | 954.866 kg/m3
292.05 K, x1 = 0.414 | 944.459 kg/m3
292.05 K, x1 = 0.486 | 923.167 kg/m3
292.05 K, x1 = 0.573 | 900.153 kg/m3
292.05 K, x1 = 0.615 | 889.701 kg/m3
292.06 K, x1 = 0.266 | 996.934 kg/m3
292.06 K, x1 = 0.3 | 984.022 kg/m3
292.06 K, x1 = 0.325 | 974.734 kg/m3
292.06 K, x1 = 0.338 | 969.925 kg/m3
292.06 K, x1 = 0.363 | 961.36 kg/m3
292.06 K, x1 = 0.407 | 946.736 kg/m3
292.06 K, x1 = 0.488 | 922.439 kg/m3
292.06 K, x1 = 0.546 | 906.966 kg/m3
292.06 K, x1 = 0.587 | 896.519 kg/m3
292.15 K, x1 = 0.246 | 1005.33 kg/m3
292.15 K, x1 = 0.325 | 974.609 kg/m3
292.15 K, x1 = 0.338 | 969.8 kg/m3
292.15 K, x1 = 0.382 | 954.742 kg/m3
292.15 K, x1 = 0.414 | 944.336 kg/m3
292.15 K, x1 = 0.486 | 923.052 kg/m3
292.15 K, x1 = 0.488 | 922.322 kg/m3
292.16 K, x1 = 0.266 | 996.81 kg/m3
292.16 K, x1 = 0.275 | 993.303 kg/m3
292.16 K, x1 = 0.3 | 983.896 kg/m3
292.16 K, x1 = 0.363 | 961.234 kg/m3
292.16 K, x1 = 0.407 | 946.608 kg/m3
292.16 K, x1 = 0.546 | 906.853 kg/m3
292.16 K, x1 = 0.573 | 900.046 kg/m3
292.16 K, x1 = 0.587 | 896.411 kg/m3
292.16 K, x1 = 0.615 | 889.595 kg/m3
292.16 K, x1 = 0.629 | 886.146 kg/m3
293.15 K, x1 = 0.266 | 995.587 kg/m3
293.15 K, x1 = 0.338 | 968.578 kg/m3
293.15 K, x1 = 0.546 | 905.746 kg/m3
293.16 K, x1 = 0.246 | 1004.11 kg/m3
293.16 K, x1 = 0.275 | 992.082 kg/m3
293.16 K, x1 = 0.3 | 982.679 kg/m3
293.16 K, x1 = 0.325 | 973.389 kg/m3
293.16 K, x1 = 0.363 | 960.014 kg/m3
293.16 K, x1 = 0.382 | 953.524 kg/m3
293.16 K, x1 = 0.407 | 945.397 kg/m3
293.16 K, x1 = 0.414 | 943.126 kg/m3
293.16 K, x1 = 0.486 | 921.889 kg/m3
293.16 K, x1 = 0.488 | 921.165 kg/m3
293.16 K, x1 = 0.573 | 898.962 kg/m3
293.16 K, x1 = 0.587 | 895.341 kg/m3
293.16 K, x1 = 0.615 | 888.546 kg/m3
293.16 K, x1 = 0.629 | 885.109 kg/m3
294.15 K, x1 = 0.246 | 1002.88 kg/m3
294.15 K, x1 = 0.266 | 994.369 kg/m3
294.15 K, x1 = 0.275 | 990.864 kg/m3
294.15 K, x1 = 0.3 | 981.466 kg/m3
294.15 K, x1 = 0.325 | 972.183 kg/m3
294.15 K, x1 = 0.338 | 967.375 kg/m3
294.15 K, x1 = 0.363 | 958.817 kg/m3
294.15 K, x1 = 0.382 | 952.329 kg/m3
294.15 K, x1 = 0.407 | 944.215 kg/m3
294.15 K, x1 = 0.414 | 941.945 kg/m3
294.15 K, x1 = 0.486 | 920.751 kg/m3
294.15 K, x1 = 0.488 | 920.031 kg/m3
294.15 K, x1 = 0.546 | 904.649 kg/m3
294.15 K, x1 = 0.573 | 897.886 kg/m3
294.15 K, x1 = 0.587 | 894.274 kg/m3
294.15 K, x1 = 0.615 | 887.502 kg/m3
294.15 K, x1 = 0.629 | 884.073 kg/m3
295.15 K, x1 = 0.246 | 1001.66 kg/m3
295.15 K, x1 = 0.266 | 993.153 kg/m3
295.15 K, x1 = 0.275 | 989.651 kg/m3
295.15 K, x1 = 0.3 | 980.26 kg/m3
295.15 K, x1 = 0.325 | 970.983 kg/m3
295.15 K, x1 = 0.338 | 966.179 kg/m3
295.15 K, x1 = 0.363 | 957.627 kg/m3
295.15 K, x1 = 0.382 | 951.15 kg/m3
295.15 K, x1 = 0.407 | 943.045 kg/m3
295.15 K, x1 = 0.414 | 940.778 kg/m3
295.15 K, x1 = 0.486 | 919.625 kg/m3
295.15 K, x1 = 0.488 | 918.905 kg/m3
295.15 K, x1 = 0.546 | 903.56 kg/m3
295.15 K, x1 = 0.587 | 893.213 kg/m3
295.15 K, x1 = 0.615 | 886.458 kg/m3
295.15 K, x1 = 0.629 | 883.039 kg/m3
295.16 K, x1 = 0.573 | 896.815 kg/m3
296.15 K, x1 = 0.275 | 988.439 kg/m3
296.15 K, x1 = 0.338 | 964.988 kg/m3
296.15 K, x1 = 0.382 | 949.976 kg/m3
296.15 K, x1 = 0.414 | 939.619 kg/m3
296.15 K, x1 = 0.615 | 885.416 kg/m3
296.16 K, x1 = 0.246 | 1000.44 kg/m3
296.16 K, x1 = 0.266 | 991.939 kg/m3
296.16 K, x1 = 0.3 | 979.058 kg/m3
296.16 K, x1 = 0.325 | 969.786 kg/m3
296.16 K, x1 = 0.363 | 956.447 kg/m3
296.16 K, x1 = 0.407 | 941.881 kg/m3
296.16 K, x1 = 0.486 | 918.503 kg/m3
296.16 K, x1 = 0.488 | 917.785 kg/m3
296.16 K, x1 = 0.546 | 902.476 kg/m3
296.16 K, x1 = 0.573 | 895.746 kg/m3
296.16 K, x1 = 0.587 | 892.153 kg/m3
296.16 K, x1 = 0.629 | 882.004 kg/m3
297.15 K, x1 = 0.246 | 999.224 kg/m3
297.15 K, x1 = 0.266 | 990.728 kg/m3
297.15 K, x1 = 0.3 | 977.857 kg/m3
297.15 K, x1 = 0.325 | 968.596 kg/m3
297.15 K, x1 = 0.338 | 963.801 kg/m3
297.15 K, x1 = 0.363 | 955.27 kg/m3
297.15 K, x1 = 0.382 | 948.809 kg/m3
297.15 K, x1 = 0.407 | 940.724 kg/m3
297.15 K, x1 = 0.414 | 938.464 kg/m3
297.15 K, x1 = 0.486 | 917.385 kg/m3
297.15 K, x1 = 0.488 | 916.67 kg/m3
297.15 K, x1 = 0.573 | 894.678 kg/m3
297.15 K, x1 = 0.615 | 884.375 kg/m3
297.15 K, x1 = 0.629 | 880.972 kg/m3
297.16 K, x1 = 0.275 | 987.23 kg/m3
297.16 K, x1 = 0.546 | 901.393 kg/m3
297.16 K, x1 = 0.587 | 891.096 kg/m3
298.15 K, x1 = 0.246 | 998.021 kg/m3
298.15 K, x1 = 0.266 | 989.517 kg/m3
298.15 K, x1 = 0.275 | 986.032 kg/m3
298.15 K, x1 = 0.3 | 976.66 kg/m3
298.15 K, x1 = 0.325 | 967.413 kg/m3
298.15 K, x1 = 0.338 | 962.62 kg/m3
298.15 K, x1 = 0.363 | 954.105 kg/m3
298.15 K, x1 = 0.382 | 947.647 kg/m3
298.15 K, x1 = 0.407 | 939.572 kg/m3
298.15 K, x1 = 0.414 | 937.32 kg/m3 and 937.319 kg/m3
298.15 K, x1 = 0.486 | 916.279 kg/m3
298.15 K, x1 = 0.488 | 915.564 kg/m3
298.15 K, x1 = 0.546 | 900.318 kg/m3
298.15 K, x1 = 0.573 | 893.615 kg/m3
298.15 K, x1 = 0.587 | 890.042 kg/m3
298.15 K, x1 = 0.615 | 883.332 kg/m3
298.15 K, x1 = 0.629 | 879.94 kg/m3
